The values that follow come from patent US20260327263A1, “Anti-Bacterial Peptides” (priority 2023, published 2026).

Several values for one entry are separate records, joined by “and”; a condition that tells them apart may be missing. Identical values can stand only once. Entries after “also recorded” stand apart in the source; their conditions may differ. Where no end group is shown, it is not given here. Where only a bound is given, the exact number is not on record here.

Data set [1] deals with Pseudomonas aeruginosa (PA). As to the kind of experiment: Broth microdilution anti-bacterial assay (CLSI), Pseudomonas aeruginosa. The class given is cell-based, Pseudomonas aeruginosa (ATCC 14213). The note with it: for anti-bacterial activity (in words): PA and SA; for MIC / MBC: PA; for MIC: overnight, 37° C., ≥99% inhibition; for MBC: ≥99% killing.
For data set [2], the system named is Staphylococcus aureus (SA). Nature of the data set: Broth microdilution anti-bacterial assay (CLSI), Staphylococcus aureus. The class given is cell-based. The note with it: SA; for MIC: overnight, 37° C., ≥99% inhibition; for MBC: ≥99% killing.
For data set [3], the system named is Pseudomonas aeruginosa (PA). As to the kind of experiment: Time-kill assay, Pseudomonas aeruginosa. Format: cell-based. The note with it: for time to kill PA (in words): 1X MBC; for Time kill PA, >99% killing: at 1X MBC, * indicates killing within seconds. The procedure: (§1) The bactericidal abilities of the variant peptides are not only effective, but also fast-acting. […] The killing kinetics are detailed in Table 11 below.
(§2) Pseudomonas aeruginosa (PA) and Staphylococcus aureus (SA) strains were grown as per CLSI guidelines. AMPs were added to the bacterial cultures at their 1X MBC concentrations. Upon treatment, the bacterial cultures were enumerated for viable counts immediately within 1 min, 5 min, 15 min, 30 min and 60 min post-treatments.

The test system of data set [4] is Staphylococcus aureus (SA). As to the kind of experiment: Time-kill assay, Staphylococcus aureus. Format: cell-based. The conditions noted are these: for Time kill SA, >99% killing: at 1X MBC, * indicates killing within seconds. The procedure: as §1, §2
In data set [5] the test system is Pseudomonas aeruginosa PA BAA-2110. As to the kind of experiment: Broth microdilution, PA BAA-2110 (lung infection in cystic fibrosis). Format: cell-based, Pseudomonas aeruginosa (BAA-2110). The note with it: PA BAA-2110. The procedure:
(§3) Bacteria strains involved in lung infection in cystic fibrosis patients (PA-BAA 2110) and ear-eye infections (PA-CRM 9027) are treated with exemplary variant peptides, such as E1AM2 and Q19L.
(§4) Examination of the potency of modified short peptides against PA and SA strains was performed by using the broth microdilution protocol from the Clinical and Laboratory Standards Institute (CLSI) guidelines (CLSI 2012) as described. Briefly, five freshly plated bacteria colonies were grown in cation adjusted MH2 broth (BD Biosciences) in a shaker incubator at 37° C., 220 RPM. Cells were grown to an optical density (OD600) of ~0.2 measured using a Microplate Spectrophotometer (Molecular Devices Spectra Max Plus). 100 μL of microbial culture containing ~5×10^5 CFU/mL of bacteria in the respective broths were introduced into each well containing 100 μL of peptides and incubated overnight at 37° C. Next, to check the bactericidal effects, 100 μL from each well was transferred and spread on sterile MH2 agar plates. The plates were incubated overnight at 37° C. and the number of colonies forming units (CFU) were calculated the following day. Readings of bacteria grown in media without any treatments were normalized to 100% as media control. For the mixed infection study, three freshly plated bacteria colonies each from PA, SA and ST plates were grown together in cation adjusted MH2 broth and proceeded as described above.
On the technique in general: In broth dilution the organism is exposed to a series of concentrations in liquid medium.

Data set [6] relates to Pseudomonas aeruginosa PA CRM-9027. Nature of the data set: Broth microdilution, PA CRM-9027 (ear-eye infections). The conditions noted are these: PA CRM-9027. Format: cell-based, Pseudomonas aeruginosa (CRM-9027). The procedure: as §3, §4
Data set [7] has as its system Pseudomonas aeruginosa (PA). As to the kind of experiment: Antimicrobial resistance evolution assay, PA. The class given is cell-based. The note with it: for development of antimicrobial resistance, PA: serial passaging, 28 days, resistance = >4-fold MIC change. An excerpt: (§5) The development of antimicrobial resistance is defined by greater than a 4-fold change to their initial minimum inhibitory concentration (MIC) at day 1. Exemplary bacteria strains Pseudomonas aeruginosa (PA) and Staphylococcus aureus (SA) are subjected to continuous daily serial passaging over several days, with treatment of exemplary variant peptides E1AM2 (SEQ ID NO: 2) and Q19L (SEQ ID NO: […]) at subinhibitory concentrations. […] The treatments were discontinued when the MIC increased by more than four-fold from the initial MIC or when MIC reached >100 μM.
(§6) Briefly, sequential passaging of PA, and SA cells was done with sub-inhibitory concentrations of antibiotics or E1AM2 up to 4 weeks. The cells grown in those concentrations of antibiotics or peptides were diluted to A600 nm (OD600) of ~0.2 and serially passaged daily with the same concentrations at 37° C. with agitation at 24 h intervals.

For data set [8], the system named is Staphylococcus aureus (SA). As to the kind of experiment: Antimicrobial resistance evolution assay, SA. The class given is cell-based. The conditions noted are these: serial passaging; resistance = >4-fold MIC change.
Source text: as §5, §6

The subject of a further data set is human keratinocytes. As to the kind of experiment: 2D scratch assay, keratinocyte migration. Format: cell-based. The procedure:
Wound healing is directly associated with the migration speed of keratinocytes. The migration speed of human keratinocytes in presence of E1AM2, V8L (SEQ ID NO: 19), and Q19L variants is tested in comparison with pexiganan (SEQ ID NO: 54). Migration speed of human keratinocytes assessed in a 2D scratch assay at D 0 and D 2 timepoints. Decrease in wound area over time was measured by applying an ImageJ plugin ‘Wound Healing Size Tool’ on bright-field images. The change in wound area over the course of 48 hours was used as a measure of the migration speed of keratinocytes. Each value is the mean±SD (n=3). The p-value was calculated using ANOVA for multiple comparisons (Dunnett's multiple comparisons test). **** p<0.0001. *** p<0.001. ** p <0.01. * p<0.05. […] Both peptides healed wound faster within their respective MIC and MBC concentrations. […] SEQ ID NO: 27=Q19L; SEQ ID NO: 2=E1AM2; SEQ ID NO: 19=V8L.
(§7) Wound closure was compared with the untreated samples (circle, red highlight). For improved clarity, error bars have been omitted from this representation. […] Each value is the mean±SD (n=3). Statistical significance was assessed using ANOVA for multiple comparisons (Dunnett's multiple comparisons test). **** p<0.0001, *** p<0.001, ** p<0.01, *p<0.05, ns denotes nonsignificance, p >0.05.
Wound areas of the human keratinocyte culture were assessed in presence of peptides in a 2D scratch assay at the 0 hour, and 48-hour time points by applying an ImageJ plugin, ‘Wound Healing Size Tool’ on brightfield images. Quantification of wound width was calculated by obtaining the averaged Euclidean distance between each paired pixel at the lateral wound edges. The change in wound area over the course of 48 hours was used as a measure of the migration speed of keratinocytes.
Using the inverted BioTek Lionheart LX Automated Microscope, brightfield images were obtained at 4× magnification to observe the wound area at timepoints 0 (before treatment) and 48 hours-post treatment. Microscopy settings were maintained as focus offset (781.3 μm), illumination (2), integration Time (21) with no gain. To cover the entire well, montage images of four rows by three columns were stitched together by enabling the “image stitching” function and images were saved in tiff-format.

A short description of a further data set: Hemolysis assay. The class given is cell-based, human. The note with it: human, red blood cells; at respective MIC/MBC concentrations; melittin 3.125 μM = 100%. The procedure:
(§8) The hemolytic score of the peptide variants and pexiganan (SEQ ID NO: 54) are compared to a strong hemolytic peptide, melittin 12 as a control. […] The minimum peptide concentration corresponding to 10% hemolysis (minimal hemolysis concentration, HC) of E1AM2=50 μM, V8LQ19L=12.5 μM, V8LQ19L C-2=3.125 μM, and pexiganan=12.5 μM respectively. Readings of the melittin at 3.125 μM were normalised to 100%.
(§9) Examination of hemolytic activity of ultra-short peptides was performed by isolating the red blood cells (RBCs) from human blood samples by centrifugation (1000 g, 4° C., 10 min) and resuspension in 27 mL PBS. This washing step was repeated four times before the RBCs were diluted to a 10% (v/v) suspension. […] Hemolytic properties of E1AM2 and pexiganan were evaluated with melittin used as a positive control, and PBS as a negative control. The plates were incubated at 37° C., for 30 min and then centrifuged (1258 g, 4° C., 6 min). 75 μL of supernatant were transferred into a flat-bottom clear 96-well plate and the OD576 nm was read. Readings of the melittin sample at 3.125 μM were normalized to 100%.

Data set [9] deals with human red blood cells (hRBCs). Nature of the data set: Hemolysis assay. Format: cell-based. The conditions noted are these: hRBCs; for minimum concentration corresponding to 10% hemolysis (HC): 37° C., 30 min; for hemolysis (in words): FIG. 8 up to 100 μM. The procedure: as §8, §9
In data set [10] the test system is mixed bacterial infection (PA, SA and ST). Nature of the data set: Broth microdilution, mixed bacterial infection. Format: cell-based. The note with it: mixed infection. The procedure:
Chronic wounds mostly present mixed infections where numerous pathogens colonize together.
as §4

Data set [11] deals with human keratinocytes (HaCaT). As to the kind of experiment: Cell proliferation assay, HaCaT keratinocytes. The class given is cell-based. The note with it: 100 μM; cell line not named in Table 15. The procedure:
as §7
CyQUANT™ Direct Cell Proliferation Assay (ThermoFisher Scientific, Catalogue) was performed as per manufacturer's instructions to determine the safety of the peptides to human keratinocytes. […] The fluorescence intensity and number of stained cells were determined using the LionHeart FX Automated Microscope (BioTek, VT, USA).

The next data set relates to fibroblasts (HFF-1). Nature of the data set: Cell proliferation assay, HFF-1 fibroblasts. Format: cell-based. The conditions noted are these: 24 h; certain concentrations.
The nature of data set [12]: Comparison of AMPs in clinical trial with V8LQ19L (Table 13). The note with it: ✓ / X.

For the substance KKLLKKWVKLSKKALKLALSL-NH2 [Q19L], in [1], the “anti-bacterial activity (in words)” value is “reduction in the minimum inhibitory concentration (MIC) and minimum bactericidal concentration (MBC) values”; the MIC (usually the least concentration at which growth counts as inhibited) worked out at 3.125 µM; the MBC (commonly the lowest tested concentration that kills the bacteria rather than only halting them) is 3.125 µM and 6.25 µM. In data set [2], this substance displayed an MIC of 3.125 µM and an MBC of 3.125 µM. Further, in data set [3], the “time to kill PA (in words)” value was “within minutes” and the “Time kill PA, >99% killing” value is on record as greater than 1.5 min. In [4] (1X MBC), the “time to kill SA (in words)” value is “within minutes”. In addition, the “Time kill SA, >99% killing” value in data set [4] worked out at 1 min. In data set [5], the minimum bactericidal concentration (MBC) was determined as 6.25 µM and the MIC is 6.25 µM. In data set [6], this substance displayed an MBC of 6.25 µM and an MIC of 6.25 µM. The “development of antimicrobial resistance, PA” value in data set [7] is given as “prevented resistance acquisition”. Further, the “development of antimicrobial resistance, SA” value in data set [8] is “prevented resistance development”. In addition, the “migration speed of keratinocytes” value with human keratinocytes (48 h, E1AM2 3.125-12.5 μM, Q19L 3.125-6.25 μM) is given as “increase keratinocyte migration; also recorded: increased the migration speed of keratinocytes significantly”. In addition, the “migration delay of keratinocytes” value in the data set with human keratinocytes (only at highest concentrations (100 μM)) is listed as “significant migration delay”.
In the case of KKLLKKWLKLSKKALKLAL-NH2 [V8LQ19L C-2], in data set [1], the “anti-bacterial activity (in words)” value is “strong potency”, the MIC is 1.56 µM and the MBC is 1.56 µM. In data set [2], this substance had a minimum inhibitory concentration (MIC) of 1.56 µM and an MBC of 1.56 µM. This substance had a hemolysis at 0.5 h in “Hemolysis assay” of roughly 0%. Also, in data set [9], the “minimum concentration corresponding to 10% hemolysis (HC)” value amounted to 3.125 µM and the “hemolysis (in words)” value was “do not cause hemolysis”.
“GIGKFLKKAKKFGKAFVKILKK-NH2 [Pexiganan, reference compound]”: the MIC in data set [1] is 3.125 µM; in [1] (listed as PEX), 3.128 µM and 3.125 µM; in [2] it was 6.25 µM and 6.12 µM; in data set [2] (listed as PEX), 6.25 µM and 6.26 µM; in data set [10] it was 6.25 µM; in data set [5], 3.125 µM. This substance also came in with an MIC in data set [6] of 3.125 µM. Moreover, the MBC in [1] was 6.25 µM; in data set [1] (listed as PEX), 6.25 µM and 8.25 µM; in data set [2], 12.5 µM; in [2] (listed as PEX), 12.8 µM and 12.5 µM and 12.6 µM; in data set [10], 12.5 µM; in data set [5], 6.25 µM. The same substance yielded an MBC in data set [6] of 3.125 µM. In [2], the “MIC/MBC relative to E1AM2, SA” value is listed as “two-higher value”. Also, the “time to kill PA (in words)” value in data set [3] is “took the longest time to kill >99% PA”. For the same substance, the “Time kill PA, >99% killing” value in [3] was greater than 5 to 15 min. Further, the “Time kill SA, >99% killing” value in data set [4] turned out to be 1 min. The “AMR prevention / resistance induction” value in data set [7] (Table 15: in PA and SA, bacteria not named) was “Gives rise to AMR”. Further, the “development of antimicrobial resistance, PA” value in data set [7] is “developed resistance”. Besides, in data set [9], the “minimum concentration corresponding to 10% hemolysis (HC)” value amounted to 12.5 µM. For the same substance, in data set [9], the “hemolysis (in words)” value is listed as “none of the peptide variants or pexiganan caused significant hemolysis”. In addition, the “Cytotoxicity at high concentration (100 μM)” value in data set [11] is listed as “Cytotoxic”. Also, in the data set on fibroblasts (HFF-1), the HFF-1 proliferation result was “enhanced proliferation”. Besides, the Broad spectrum activity result in [12] is “✓”. The Healing support entry in [12] was “✓”.
